Patent US4499083A, “3-O-Demethyl derivatives of the istamycin B series of compounds” (Zaidan Hojin Biseibutsu Kagaku Kenkyu Kai, priority 1980, dated 1985)
≈ marks a conversion by molar mass, not a printed value. Where two headings read alike, the source gives them in different places.

Tests used:
Assay in all cases: Antibacterial spectrum, MIC by serial dilution on nutrient agar
Type in all cases: cell-based
[1] = test system: Shigella dysenteriae JS11910; details: JS11910, 17 h, read-out: Minimum inhibitory concentration
Providencia sp. Pv16 = details: 37° C., 17 hours, read-out: Minimum inhibitory concentration
[2] = test system: Pseudomonas aeruginosa ROS 134/PU21; details: ROS134/PU21, 17 h, read-out: Minimum inhibitory concentration
[3] = test system: Bacillus subtilis PCI 219; details: read-out: Minimum inhibitory concentration
Serratia marcescens = details: read-out: Minimum inhibitory concentration
[4] = test system: Staphylococcus aureus FDA 209P; details: FDA209P, 37° C., 17 hours, read-out: Minimum inhibitory concentration
[5] = test system: Escherichia coli K-12 ML1410 R81; details: K12ML1410R81, 17 h, read-out: Minimum inhibitory concentration
[6] = test system: Escherichia coli K-12 LA290 R56; details: K12LA290R56, 17 h, read-out: Minimum inhibitory concentration
Proteus rettgeri GN311 = details: Providencia rettgeri, 37° C., 17 hours, read-out: Minimum inhibitory concentration
Escherichia coli K-12 R5 = details: K12R5, 17 h, read-out: Minimum inhibitory concentration
[7] = test system: Pseudomonas aeruginosa No. 12; details: 37° C., 17 hours, read-out: Minimum inhibitory concentration
[8] = test system: Pseudomonas aeruginosa H9; details: 37° C., 17 hours, read-out: Minimum inhibitory concentration
[9] = test system: Klebsiella pneumoniae PCI602; details: 37° C., 17 hours, read-out: Minimum inhibitory concentration
[10] = test system: Bacillus cereus ATCC 10702; details: read-out: Minimum inhibitory concentration
[11] = test system: Pseudomonas aeruginosa PST1; details: 37° C., 17 hours, read-out: Minimum inhibitory concentration
[12] = test system: Escherichia coli K-12 ML1410; details: read-out: Minimum inhibitory concentration
[13] = test system: Escherichia coli K-12 LA290 R55; details: K12LA290R55, 17 h, read-out: Minimum inhibitory concentration
[14] = test system: Staphylococcus aureus Ap01; details: 37° C., 17 hours, read-out: Minimum inhibitory concentration
Serratia sp. SOU = details: 37° C., 17 hours, read-out: Minimum inhibitory concentration
Escherichia coli NIHJ = details: read-out: Minimum inhibitory concentration
Proteus rettgeri GN466 = details: Providencia rettgeri, read-out: Minimum inhibitory concentration
[15] = test system: Escherichia coli K-12 J5R11-2; details: read-out: Minimum inhibitory concentration
[16] = test system: Pseudomonas aeruginosa H11; details: 37° C., 17 hours, read-out: Minimum inhibitory concentration
[17] = test system: Escherichia coli K-12 LA290 R64; details: K12LA290R64, 17 h, read-out: Minimum inhibitory concentration
[18] = test system: Pseudomonas aeruginosa A3; details: 37° C., 17 hours, read-out: Minimum inhibitory concentration
[19] = test system: Pseudomonas aeruginosa 21-75; details: 2175, 37° C., 17 hours, read-out: Minimum inhibitory concentration
[20] = test system: Micrococcus flavus FDA 16; details: FDA16, 37° C., 17 hours, read-out: Minimum inhibitory concentration
[21] = test system: Escherichia coli K-12 R388; details: K12R388, 17 h, read-out: Minimum inhibitory concentration
Serratia sp. 4 = details: 37° C., 17 hours, read-out: Minimum inhibitory concentration
[22] = test system: Escherichia coli K-12 C600 R135; details: K12C600R135, 37° C., 17 hours, read-out: Minimum inhibitory concentration
Description: (§1) The antibacterial spectra of 3-O-demethylistamycin B.sesquicarbonate and 3-O-demethyl-2"-N-formimidoylistamycin B.disulphate.trihydrate are shown in Table 2, along with that of istamycin B for comparison purposes.
(§2) Minimum inhibitory concentrations (mcg/ml)*^1
(§3) *^1 Determined according to a standard serial dilution method on
(§4) nutrient agar plates which were incubated at 37° C. for 17 hours.

[23] = test system: Shigella flexneri 4B JS11811; details: 4BJS11811, 37° C., 17 hours, read-out: Minimum inhibitory concentration
Description: as §1, §2, §3, §4

[24] = test system: Escherichia coli K-12 ML1630; details: K12ML1630, 37° C., 17 hours, read-out: Minimum inhibitory concentration
Description: as §1, §2, §3, §4

Shigella sonnei JS11746 = details: 37° C., 17 hours, read-out: Minimum inhibitory concentration
Description: as §1, §2, §3, §4

[25] = test system: Klebsiella pneumoniae 22#3038; details: 37° C., 17 hours, read-out: Minimum inhibitory concentration
Description: as §1, §2, §3, §4

[26] = test system: Escherichia coli K-12 ML1629; details: K12ML1629, 37° C., 17 hours, read-out: Minimum inhibitory concentration
Description: as §1, §2, §3, §4

[27] = test system: Pseudomonas aeruginosa B-13; details: B13, 37° C., 17 hours, read-out: Minimum inhibitory concentration
[28] = nutrient agar, 37° C., 17 hours
[29] = PCI219, Bacillus subtilis PCI 219, nutrient agar, 37° C., 17 hours
[30] = ATCC10702, Bacillus cereus ATCC 10702, nutrient agar, 37° C., 17 hours
[31] = Escherichia coli, K12ML1410, 17 h
[32] = Escherichia coli NIHJ, nutrient agar, 37° C., 17 hours
[33] = K12J5R112, Escherichia coli K-12 J5R11-2, nutrient agar, 37° C., 17 hours

Structure (SMILES) | MIC [1] | MIC (Providencia sp. Pv16) | MIC [2] | MIC [4] | MIC [5] | MIC [6] | MIC (Proteus rettgeri GN311) | MIC (Escherichia coli K-12 R5) | MIC [7] | MIC [8] | MIC [9] | MIC [11] | MIC [13] | MIC [14] | MIC (Serratia sp. SOU) | MIC [16] | MIC [17] | MIC [18] | MIC [19] | MIC [20] | also measured
CNCC1CCC(N)C(OC2C(N)CC(O)C(N(C)C(=O)CN)C2O)O1 (stereo not drawn) [3-O-Demethylistamycin B] | 6.25 µg/mL (≈ 16.6 µM) | 25 µg/mL (≈ 66.6 µM) | 50 µg/mL (≈ 133 µM) | 0.39 µg/mL (≈ 1.04 µM) | 3.13 µg/mL (≈ 8.34 µM) | 3.13 µg/mL (≈ 8.34 µM) | 12.5 µg/mL (≈ 33.3 µM) | 6.25 µg/mL (≈ 16.6 µM) | 12.5 µg/mL (≈ 33.3 µM) | 25 µg/mL (≈ 66.6 µM) | 3.13 µg/mL (≈ 8.34 µM) | 50 µg/mL (≈ 133 µM) | 6.25 µg/mL (≈ 16.6 µM) | 0.78 µg/mL (≈ 2.08 µM) | 25 µg/mL (≈ 66.6 µM) | 25 µg/mL (≈ 66.6 µM) | 3.13 µg/mL (≈ 8.34 µM) | 3.13 µg/mL (≈ 8.34 µM) | 50 µg/mL (≈ 133 µM) | 3.13 µg/mL (≈ 8.34 µM) | MIC ([3]; Bacillus subtilis, PCI219, 17 h): < 0.2 µg/mL; MIC (Serratia marcescens; [28]): 12.5 µg/mL (≈ 33.3 µM); MIC ([10]; Bacillus cereus, ATCC10702, 17 h): 1.56 µg/mL (≈ 4.15 µM); MIC ([12]; K12ML1410, Escherichia coli K-12 ML1410, nutrient agar, 37° C., 17 hours): 3.13 µg/mL (≈ 8.34 µM); MIC (Escherichia coli NIHJ; Escherichia coli, 17 h): 1.56 µg/mL (≈ 4.15 µM); MIC (Proteus rettgeri GN466; GN466, 17 h): 6.25 µg/mL (≈ 16.6 µM); MIC ([15]; Escherichia coli, K12J5R112, 17 h): 1.56 µg/mL (≈ 4.15 µM); MIC [21]: 1.56 µg/mL (≈ 4.15 µM); MIC (Serratia sp. 4): 12.5 µg/mL (≈ 33.3 µM); MIC [22]: 6.25 µg/mL (≈ 16.6 µM); MIC [23]: 6.25 µg/mL (≈ 16.6 µM); MIC [24]: 3.13 µg/mL (≈ 8.34 µM); MIC (Shigella sonnei JS11746): 6.25 µg/mL (≈ 16.6 µM); MIC [25]: 6.25 µg/mL (≈ 16.6 µM); MIC [26]: 3.13 µg/mL (≈ 8.34 µM); MIC [27]: 50 µg/mL (≈ 133 µM)
CNCC1CCC(N)C(OC2C(N)CC(OC)C(N(C)C(=O)CN)C2O)O1 (stereo not drawn) [Istamycin B, istamycin B] | 3.13 µg/mL (≈ 8.04 µM) | 6.25 µg/mL (≈ 16 µM) | > 100 µg/mL | 0.39 µg/mL (≈ 1 µM) | 1.56 µg/mL (≈ 4.01 µM) | 1.56 µg/mL (≈ 4.01 µM) | 12.5 µg/mL (≈ 32.1 µM) | 3.13 µg/mL (≈ 8.04 µM) | 100 µg/mL (≈ 257 µM) | 50 µg/mL (≈ 128 µM) | 1.56 µg/mL (≈ 4.01 µM) | 100 µg/mL (≈ 257 µM) | 3.13 µg/mL (≈ 8.04 µM) | 0.78 µg/mL (≈ 2 µM) | 100 µg/mL (≈ 257 µM) | 50 µg/mL (≈ 128 µM) | 1.56 µg/mL (≈ 4.01 µM) | 6.25 µg/mL (≈ 16 µM) | 100 µg/mL (≈ 257 µM) | 6.25 µg/mL (≈ 16 µM) | MIC [3, 29]: < 0.2 µg/mL; MIC (Serratia marcescens; [28]): 6.25 µg/mL (≈ 16 µM); MIC [10, 30]: 1.56 µg/mL (≈ 4.01 µM); MIC [12, 31]: 3.13 µg/mL (≈ 8.04 µM); MIC (Escherichia coli NIHJ; [32]): 1.56 µg/mL (≈ 4.01 µM); MIC (Proteus rettgeri GN466; Proteus rettgeri GN466, nutrient agar, 37° C., 17 hours): 6.25 µg/mL (≈ 16 µM); MIC [15, 33]: 1.56 µg/mL (≈ 4.01 µM); MIC [21]: 1.56 µg/mL (≈ 4.01 µM); MIC (Serratia sp. 4): 50 µg/mL (≈ 128 µM); MIC [22]: 12.5 µg/mL (≈ 32.1 µM); MIC [23]: 3.13 µg/mL (≈ 8.04 µM); MIC [24]: 1.56 µg/mL (≈ 4.01 µM); MIC (Shigella sonnei JS11746): 3.13 µg/mL (≈ 8.04 µM); MIC [25]: 3.13 µg/mL (≈ 8.04 µM); MIC [26]: 1.56 µg/mL (≈ 4.01 µM); MIC [27]: > 100 µg/mL
CNCC1CCC(N)C(OC2C(N)CC(O)C(N(C)C(=O)CNC=N)C2O)O1 (stereo not drawn) [3-O-Demethyl-2"-N-formimidoylistamycin B] | 3.13 µg/mL (≈ 7.78 µM) | 25 µg/mL (≈ 62.1 µM) | 50 µg/mL (≈ 124 µM) | 0.2 µg/mL (≈ 0.497 µM) | 1.56 µg/mL (≈ 3.88 µM) | 1.56 µg/mL (≈ 3.88 µM) | 12.5 µg/mL (≈ 31.1 µM) | 3.13 µg/mL (≈ 7.78 µM) | 12.5 µg/mL (≈ 31.1 µM) | 12.5 µg/mL (≈ 31.1 µM) | 1.56 µg/mL (≈ 3.88 µM) | 25 µg/mL (≈ 62.1 µM) | 1.56 µg/mL (≈ 3.88 µM) | 0.78 µg/mL (≈ 1.94 µM) | > 100 µg/mL | 25 µg/mL (≈ 62.1 µM) | 1.56 µg/mL (≈ 3.88 µM) | 1.56 µg/mL (≈ 3.88 µM) | 25 µg/mL (≈ 62.1 µM) | < 0.2 µg/mL | MIC [3, 29]: < 0.2 µg/mL; MIC (Serratia marcescens; 17 h): 3.13 µg/mL (≈ 7.78 µM); MIC [10, 30]: 1.56 µg/mL (≈ 3.88 µM); MIC [12, 31]: 3.13 µg/mL (≈ 7.78 µM); MIC (Escherichia coli NIHJ; [32]): 1.56 µg/mL (≈ 3.88 µM); MIC (Proteus rettgeri GN466; GN466, 17 h): 3.13 µg/mL (≈ 7.78 µM); MIC [15, 33]: 1.56 µg/mL (≈ 3.88 µM); MIC [21]: 1.56 µg/mL (≈ 3.88 µM); MIC (Serratia sp. 4): 6.25 µg/mL (≈ 15.5 µM); MIC [22]: 12.5 µg/mL (≈ 31.1 µM); MIC [23]: 3.13 µg/mL (≈ 7.78 µM); MIC [24]: 1.56 µg/mL (≈ 3.88 µM); MIC (Shigella sonnei JS11746): 3.13 µg/mL (≈ 7.78 µM); MIC [25]: 3.13 µg/mL (≈ 7.78 µM); MIC [26]: 1.56 µg/mL (≈ 3.88 µM); MIC [27]: > 100 µg/mL
